{"source": "patent US7871628B2", "about": "“Peptide mimics of conserved gonococcal epitopes and methods and compositions using them” (University of Massachusetts, priority 1999, dated 2011)", "key": {"mAb 2C7 [1]": {"tested_on": "mAb 2C7", "assay": "Inhibition ELISA: synthetic peptide inhibiting mAb 2C7 binding to LOS", "procedure": "Peptides were diluted in blocking buffer (1% ovalbumin, 0.05% TWEEN-20™ (polysorbate 20), 0.5 M NaCl in PBS) to produce mixtures of varying concentrations (0.1, 0.5 and 1 mg/ml). […] Purified LOS prepared from gonococcal strain 15253 was used as a positive control. A non-reactive 15-mer peptide sequence generated by the above described random peptide library system was used as a negative control peptide [SEQ ID NO:9]."}, "mAb 2C7 [2]": {"tested_on": "mAb 2C7", "assay": "Direct ELISA: mAb 2C7 binding to multiple antigen peptides", "conditions": "plates coated with MAP 1 μg/well", "procedure": "(§1) Solid phase ELISA was performed to assess the binding of mAb 2C7 to multiple antigen peptides. For direct ELISA, Immulon 1 plates were coated overnight with multiple antigen peptides (1 μg/well) and reacted with varying concentration of mAb 2C7. For inhibition ELISA, plates were coated with purified LOS prepared from N. gonorrhoeae strain 15253 (80 μg/ml) at 37° C. for 3 h. Peptides (linear or MAPs) were diluted in blocking buffer (1% ovalbumin, 0.05% TWEEN-20™ (polysorbate 20), 0.5 M NaCl in PBS) to produce mixtures of varying concentrations. 50 μl-aliquots from each concentration were incubated with 50 μl of mAb 2C7 (stock concentration 0.4 μg/ml diluted in blocking buffer) at 37° C. for 1 h, then 100 μl of mixtures were loaded into microtiter plate wells. […] Purified LOS prepared from gonococcal strain 15253 was used as a positive control in inhibition ELISA."}, "mAb 2C7 [3]": {"target": "mAb 2C7", "assay": "Inhibition ELISA: linear peptide or MAPs inhibiting mAb 2C7 binding to LOS", "conditions": "for IC50: mAb 2C7 stock 0.4 μg/ml, LOS of strain 15253 coated plates, read-out: half maximal inhibition (IC50) of mAb 2C7 binding to LOS", "procedure": "as §1"}, "[4]": {"tested_on": "N. gonorrhoeae strain 15253 lgtG", "assay": "Complement-mediated bactericidal assay, strain 15253 lgtG mutant (2C7 epitope negative)", "format": "cell-based, Neisseria gonorrhoeae", "conditions": "serum of single immunized mouse, 67% serum, 17% human complement", "procedure": "(§2) A bactericidal assay was performed using (A) mAb 2C7 mice against strain 15253 (positive control) and strain 15253 lgtG (negative control) (4). 25 μg/ml of mAb 2C7 (100 μl in 150 μl of total volume of reaction mixture) mediated 100% killing of strain 15253, and no killing of strain 15253 lgtG. […] FIG. 12 controls included the Complement source without antibody (137.9%±1.0% survival (no killing) for strain 15253, and 132.5%±14.3% survival (no killing) for the lgtG mutant of 15253).\n(§3) Depicted in FIG. 12 is a graph showing survival of N. gonorrhoeae strain 15253 and its lgtG mutant (2C7 epitope negative) (4) exposed to mouse immune serum (67% final mouse immune serum concentration by volume) plus added human complement obtained from normal human donors (17% final human complement concentration by volume).\nStrain 15253 lgtG contains a disrupted allele of lipooligosaccharide (LOS) glycosyl transferase G, which transfers glucose (via an α linkage) onto heptose-2 in the core of LOS (4). The disruption of the lgtG locus results in the loss of 2C7 epitope expression.\nA standard bactericidal assay was performed to assess complement-mediated bactericidal activity in mouse sera (11). […] Survival was expressed as the percent increase in colonies on the plate at 30 minutes, compared to those on the plate at 0 minutes. […]"}, "IgG anti-LOS antibody": {"tested_on": "IgG anti-LOS antibody", "assay": "IgG anti-LOS antibody response in immunized mice", "format": "in vivo", "procedure": "FIGS. 8A-8D show octa-MAP1-induced IgG anti-LOS antibody responses in mice. (A) Eight mice received a dose of 50 μg of Octa-MAP1 emulsified in Freund's adjuvant on day 0 and again on day 21. (B) Four mice were immunized with purified LOS as a positive control. Mice were immunized with either Freund's adjuvant (C) or an unrelated octa-MAP control peptide (D) as negative controls.\nIn FIG. 8(A), eight mice received a dose of 50 μg of Octa-MAP1 emulsified in Freund's adjuvant on day 0 and again on day 21. […] In these mice, IgG anti-LOS titers increased minimally after the first immunization and rose after boosting.\nIgG anti-LOS antibody responses for the responder mice only (from the experiments depicted in FIGS. 8A-8D) are shown in FIG. 10. Antibody response is defined as IgG anti-LOS (mean±SE) greater than 0.4 μg/ml (4 fold above baseline IgG anti-LOS levels)."}, "[5]": {"tested_on": "N. gonorrhoeae strain 15253", "assay": "Complement-mediated bactericidal assay, strain 15253", "format": "cell-based, Neisseria gonorrhoeae", "procedure": "as §2, §3\nA standard bactericidal assay was performed to assess complement-mediated bactericidal activity in mouse sera (11). In this assay, mouse serum (67% final volume) (from various mice immunized or not as described below) was incubated with approximately 2.5×10^3 bacteria suspended in Morse A media (33) in the presence of human complement (17% final volume). The reaction mixture was then shaken continuously at 37° C. for 30 minutes. Aliquots of the reaction mixture were then inoculated onto chocolate agar plates at time 0 and 30 minutes. Survival was expressed as the percent increase in colonies on the plate at 30 minutes, compared to those on the plate at 0 minutes. Greater than 100% survival in the assay indicates growth during the 30-minute incubation period."}, "IgM anti-LOS antibody": {"tested_on": "IgM anti-LOS antibody", "assay": "IgM anti-LOS antibody response in immunized mice", "format": "in vivo", "conditions": "responder mice only"}}, "note": "Values joined by “and” are separate entries in the source; they are usually repeats but may differ in a detail not shown here. Equal entries are not always repeated. Positions of bridges follow the written chain, without caps; N, C: chain ends. No end group written: not given here."}
{"substance": "IPVLDENGLFAP [PEP1]", "values": [{"measurement": "percentage inhibition of mAb 2C7 binding to LOS", "setting": "mAb 2C7 [1]; peptide 0.1 mg/ml", "result": 17, "unit": "%"}, {"measurement": "percentage inhibition of mAb 2C7 binding to LOS", "setting": "mAb 2C7 [1]; peptide 0.5 mg/ml", "result": 77, "unit": "%"}, {"measurement": "percentage inhibition of mAb 2C7 binding to LOS", "setting": "mAb 2C7 [1]; peptide 1.0 mg/ml", "result": 91, "unit": "%"}]}
{"substance": "CGPIPVLDENGLFAPGPC [Tetra-MAP1]", "values": [{"measurement": "binding to mAb 2C7 in direct ELISA (in words)", "setting": "mAb 2C7 [2]", "result": "strong binding"}, {"measurement": "IC50", "setting": "mAb 2C7 [3]", "result": 1260, "unit": "nM"}]}
{"substance": "linear PEP1: linear PEP1 peptide compared with the MAPs in inhibition ELISA (IPVLDENGLFAP)", "values": [{"measurement": "IC50", "setting": "mAb 2C7 [3]", "result": 55000, "unit": "nM"}]}
{"substance": "unrelated octa-MAP control peptide: unrelated octa-MAP negative control, each antigen SEQ ID NO: 12 (CGPEARDEGTITLERGPC; cysteine pairing not given here; also: octa-MAP on lysine core) [reference compound]", "values": [{"measurement": "killing/survival of strain 15253 lgtG (in words)", "setting": "[4]", "result": "did not kill either strain"}, {"measurement": "IgG anti-LOS response (in words)", "setting": "IgG anti-LOS antibody; immunized mice", "result": "weak or no IgG anti-LOS responses"}, {"measurement": "killing of strain 15253 (in words)", "setting": "[5]; serum of single immunized mouse, 67% serum, 17% human complement", "result": "did not kill either strain"}]}
{"substance": "control MAP: control multiple antigen peptide(s), each antigen SEQ ID NO: 12 (CGPEARDEGTITLERGPC; cysteine pairing not given here; also: multiple antigen peptide on lysine core) [reference compound]", "values": [{"measurement": "binding to mAb 2C7 in direct ELISA (in words)", "setting": "mAb 2C7 [2]", "result": "no binding"}, {"measurement": "inhibition of mAb 2C7 binding to LOS (in words)", "setting": "mAb 2C7 [3]", "result": "no significant inhibition"}]}
{"substance": "CKSNPIHIIKNRRNIPC (disulfide 1-17 (inferred)) [negative control peptide, reference compound]", "values": [{"measurement": "inhibition of binding of 2C7 mAb to purified LOS coated plate (in words)", "setting": "mAb 2C7 [1]; peptide 0.1, 0.5 and 1 mg/ml", "result": "did not inhibit binding"}]}
{"substance": "CGPIPVLDENGLFAPGPC [Octa-MAP1]", "values": [{"measurement": "binding to mAb 2C7 in direct ELISA (in words)", "setting": "mAb 2C7 [2]", "result": "strong binding"}, {"measurement": "killing/survival of strain 15253 lgtG (in words)", "setting": "[4]", "result": "survived fully"}, {"measurement": "IgM anti-LOS antibody response (in words)", "setting": "IgM anti-LOS antibody", "result": "failed to respond with IgM anti-LOS levels higher than mice immunized with negative control antigens"}, {"measurement": "IgG anti-LOS antibody concentration in serum of immunized mouse", "setting": "IgG anti-LOS antibody; individual mice, pooled bleeds weeks 7-11", "result": "5.05 µg/mL and 1.38 µg/mL and 2.50 µg/mL"}, {"measurement": "mice with induced IgG anti-LOS antibody response", "setting": "IgG anti-LOS antibody; mice immunized day 0 and day 21, Octa-MAP1 50 μg in Freund's adjuvant", "result": "three of the eight"}, {"measurement": "IgG anti-LOS antibody levels compared with negative control antigens", "setting": "IgG anti-LOS antibody; responder mice, 7 and 10 weeks after primary immunization", "result": "higher (p<0.001)"}, {"measurement": "time of peak IgG anti-LOS response", "setting": "IgG anti-LOS antibody; three responder mice, boost at week 3", "result": 7, "unit": "week"}, {"measurement": "IC50", "setting": "mAb 2C7 [3]", "result": 230, "unit": "nM"}, {"measurement": "killing of strain 15253", "setting": "[5]; serum of immunized mouse containing 1.38 μg/ml anti-LOS antibodies", "result": 31, "unit": "%"}, {"measurement": "killing of strain 15253", "setting": "[5]; serum of immunized mouse containing 2.50 μg/ml anti-LOS antibodies", "result": 74, "unit": "%"}, {"measurement": "killing of strain 15253", "setting": "[5]; serum of immunized mouse containing 5.05 μg/ml IgG anti-LOS, 67% serum, 17% human complement, 30 min", "result": 92, "unit": "%"}, {"measurement": "survival of strain 15253", "setting": "[5]; serum of single immunized mouse (pooled bleeds weeks 7-11), 67% serum, 17% human complement, 30 min", "result": 8, "unit": "%"}]}
